The nature of this data set: recombinant UMI read abundance after kanamycin selection (control-corrected) (log10(CPM+1)); higher = more efficient recombination; extreme values may be limits of the assay; sequences stand for … in AGTGCAGAGAAAATCGGCCAGTTTTCTCTGCCTGCAGTCCGCATGCCGTGGGACCCCTTGGGTTCTAACCTGTTGCCTAGATTTATGCAGCGGACTGCCTTTCTCCCAAAGTGATAAACCGG…AGGTTGGTTTCACT; site = the 11-nt donor. An outline of the steps: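 In a pooled Escherichia coli screen for the IS621 bridge recombinase, donor and donor-binding-loop pairs were each placed with a 12-nt UMI on a plasmid bearing a promoterless kanamycin gene. This library was co-electroporated with a target plasmid encoding a fixed target and T7-inducible recombinase, and cells were plated either on IPTG (0.07 mM) plus kanamycin or without selection, in two replicates each. Recombinant UMIs were PCR-amplified across the donor–target junction and sequenced, and counts were converted to CPM, averaged over replicates, scaled by control-derived factors and reported as log10(CPM+1).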
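Also: IS621 bridge recombinase in Escherichia coli cells against a fixed T5 target plasmid.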

As to “GGAAATCCATGGACCGGTTTTCCCGGTAATCCGTATTTGAA (site GGGAATCCTTT)”, the “recombinant UMI read abundance (log10)” value is 0.
Then “GGAAATCCATGGACCGGTTTTCCCGGTAATCCGTATTTGAA (site GGTAATCCTTT)”, with 0; and “GGAAATCCATGGACCGGTTTTCCCGGTAATCCGTATTTGGT (site GGAAATCCTAC)”, with 0; and “GGAACGGCATGGACCGGTTTTCCCGGTAATCCGTATTTGGA (site GGAACGGCTTC)”, with 1.09.
For “GGAAGCTCATGGACCGGTTTTCCCGGTAATCCGTATTTGTT (site GGAAGCTCTAA)”, the “recombinant UMI read abundance (log10)” value turned out to be 2.26.
Then “GGAATGGCATGGACCGGTTTTCCCGGTAATCCGTATTTGGT (site GGAATGGCTAC)”, with 1.5.
Consider “GGAATGGCATGGACCGGTTTTCCCGGTAATCCGTATTTGGT (site GGACTGGCTAC)”, for which the “recombinant UMI read abundance (log10)” value turned out to be 0.00772.
In the case of “GGAATGGCATGGACCGGTTTTCCCGGTAATCCGTATTTGGT (site GGAGTGGCTAC)” it was 0.00394.
Then “GGAATGGCATGGACCGGTTTTCCCGGTAATCCGTATTTGGT (site GGATTGGCTAC)”, with 0.00922; and “GGAATTGCATGGACCGGTTTTCCCGGTAATCCGTATTTGCC (site GGAATTGCTGG)”, with 0.
Then “GGACACGCATGGACCGGTTTTCCCGGTAATCCGTATTTGCT (site GGACACGCTAG)”, with 2.59; and “GGACAGACATGGACCGGTTTTCCCGGTAATCCGTATTTGCC (site GGAAAGACTGG)”, with 0.
Consider “GGACAGACATGGACCGGTTTTCCCGGTAATCCGTATTTGCC (site GGACAGACTGG)”, for which the “recombinant UMI read abundance (log10)” value came to 2.42.
Then “GGACAGACATGGACCGGTTTTCCCGGTAATCCGTATTTGCC (site GGAGAGACTGG)”, with 0.
Then “GGACAGACATGGACCGGTTTTCCCGGTAATCCGTATTTGCC (site GGATAGACTGG)”, with 1.84; and “GGACAGTCATGGACCGGTTTTCCCGGTAATCCGTATTTGTC (site GGACAGTCTGA)”, with 3.04; and “GGACCAACATGGACCGGTTTTCCCGGTAATCCGTATTTGTA (site GGACCAACTTA)”, with 1.09.
Then “GGACCAACATGGACCGGTTTTCCCGGTAATCCGTATTTGTA (site GGCCCAACTTA)”, with 0.00566.
On to “GGACCAACATGGACCGGTTTTCCCGGTAATCCGTATTTGTA (site GGGCCAACTTA)”, for which the “recombinant UMI read abundance (log10)” value worked out at 0.0083.
In the case of “GGACCAACATGGACCGGTTTTCCCGGTAATCCGTATTTGTA (site GGTCCAACTTA)” it was 0.0428; in that of “GGACGTACATGGACCGGTTTTCCCGGTAATCCGTATTTGTG (site GGACGTACTCA)”, 1.09; in that of “GGACTGGCATGGACCGGTTTTCCCGGTAATCCGTATTTGGT (site GGAATGGCTAC)”, 0.00409.
Then “GGACTGGCATGGACCGGTTTTCCCGGTAATCCGTATTTGGT (site GGACTGGCTAC)”, with 0.371.
On to “GGACTGGCATGGACCGGTTTTCCCGGTAATCCGTATTTGGT (site GGAGTGGCTAC)”, for which the “recombinant UMI read abundance (log10)” value is 0.0324.
Then “GGACTGGCATGGACCGGTTTTCCCGGTAATCCGTATTTGGT (site GGATTGGCTAC)”, with 0.0234; and “GGACTTCCATGGACCGGTTTTCCCGGTAATCCGTATTTGGT (site GGACTTCCTAC)”, with 1.16; and “GGAGAGACATGGACCGGTTTTCCCGGTAATCCGTATTTGCC (site GGAAAGACTGG)”, with 0.
In the case of “GGAGAGACATGGACCGGTTTTCCCGGTAATCCGTATTTGCC (site GGACAGACTGG)” it was 0; in that of “GGAGAGACATGGACCGGTTTTCCCGGTAATCCGTATTTGCC (site GGAGAGACTGG)”, 0.
In the case of “GGAGAGACATGGACCGGTTTTCCCGGTAATCCGTATTTGCC (site GGATAGACTGG)” it was 0; in that of “GGAGATTCATGGACCGGTTTTCCCGGTAATCCGTATTTGAC (site GGAGATTCTGT)”, 0.
“GGAGCACCATGGACCGGTTTTCCCGGTAATCCGTATTTGCA (site GGAGCACCTTG)”: the “recombinant UMI read abundance (log10)” value turned out to be 0.
In the case of “GGAGCACCATGGACCGGTTTTCCCGGTAATCCGTATTTGCA (site GGCGCACCTTG)” it was 0; in that of “GGAGCACCATGGACCGGTTTTCCCGGTAATCCGTATTTGCA (site GGGGCACCTTG)”, 0; in that of “GGAGCACCATGGACCGGTTTTCCCGGTAATCCGTATTTGCA (site GGTGCACCTTG)”, 0.00599.
In the case of “GGAGCCCCATGGACCGGTTTTCCCGGTAATCCGTATTTGGG (site GGAGCCCCTCC)” it was 0.00903.
In the case of “GGAGGCCCATGGACCGGTTTTCCCGGTAATCCGTATTTGCC (site GGAGGCCCTGG)” it was 0; in that of “GGAGGTACATGGACCGGTTTTCCCGGTAATCCGTATTTGAC (site GAAGGTACTGT)”, 0.759; in that of “GGAGGTACATGGACCGGTTTTCCCGGTAATCCGTATTTGAC (site GCAGGTACTGT)”, 0.553.
In the case of “GGAGGTACATGGACCGGTTTTCCCGGTAATCCGTATTTGAC (site GGAGGTACTGT)”, the “recombinant UMI read abundance (log10)” value turned out to be 1.39.
Then “GGAGGTACATGGACCGGTTTTCCCGGTAATCCGTATTTGAC (site GTAGGTACTGT)”, with 0; and “GGAGTAGCATGGACCGGTTTTCCCGGTAATCCGTATTTGGT (site GGAGTAGCTAC)”, with 1.18; and “GGAGTAGCATGGACCGGTTTTCCCGGTAATCCGTATTTGGT (site GGAGTCGCTAC)”, with 0.0165.
Then “GGAGTAGCATGGACCGGTTTTCCCGGTAATCCGTATTTGGT (site GGAGTGGCTAC)”, with 0.49; and “GGAGTAGCATGGACCGGTTTTCCCGGTAATCCGTATTTGGT (site GGAGTTGCTAC)”, with 0.
In the case of “GGAGTATCATGGACCGGTTTTCCCGGTAATCCGTATTTGAC (site CTAGTATCTGT)” it was 0; in that of “GGAGTATCATGGACCGGTTTTCCCGGTAATCCGTATTTGAC (site GGAGTATCTGT)”, 2.66; in that of “GGAGTCGCATGGACCGGTTTTCCCGGTAATCCGTATTTGCG (site GAAGTCGCTCG)”, 0.00287.
On to “GGAGTCGCATGGACCGGTTTTCCCGGTAATCCGTATTTGCG (site GCAGTCGCTCG)”, for which the “recombinant UMI read abundance (log10)” value worked out at 0.021.
Then “GGAGTCGCATGGACCGGTTTTCCCGGTAATCCGTATTTGCG (site GGAGTCGCTCG)”, with 1.28; and “GGAGTCGCATGGACCGGTTTTCCCGGTAATCCGTATTTGCG (site GTAGTCGCTCG)”, with 0.0226.
In the case of “GGAGTCTCATGGACCGGTTTTCCCGGTAATCCGTATTTGTC (site GGAGTCTCTGA)” it was 2.36; in that of “GGAGTGCCATGGACCGGTTTTCCCGGTAATCCGTATTTGGA (site GGAGTGCCTTC)”, 0.0188; in that of “GGAGTGTCATGGACCGGTTTTCCCGGTAATCCGTATTTGGT (site GGAGTGACTAC)”, 0.192.
Turning to “GGAGTGTCATGGACCGGTTTTCCCGGTAATCCGTATTTGGT (site GGAGTGCCTAC)”, the “recombinant UMI read abundance (log10)” value was determined as 0.00939.
Then “GGAGTGTCATGGACCGGTTTTCCCGGTAATCCGTATTTGGT (site GGAGTGGCTAC)”, with 0.0122.
Take “GGAGTGTCATGGACCGGTTTTCCCGGTAATCCGTATTTGGT (site GGAGTGTCTAC)”: the “recombinant UMI read abundance (log10)” value is 1.71.
Then “GGATAATCATGGACCGGTTTTCCCGGTAATCCGTATTTGAA (site GGATAATCTTT)”, with 2.84.
In the case of “GGATAGACATGGACCGGTTTTCCCGGTAATCCGTATTTGAC (site GGATAGACTGA)” it was 0.
Then “GGATAGACATGGACCGGTTTTCCCGGTAATCCGTATTTGAC (site GGATAGACTGC)”, with 0.822.
“GGATAGACATGGACCGGTTTTCCCGGTAATCCGTATTTGAC (site GGATAGACTGG)”: the “recombinant UMI read abundance (log10)” value was 1.9.
With “GGATAGACATGGACCGGTTTTCCCGGTAATCCGTATTTGAC (site GGATAGACTGT)”, the “recombinant UMI read abundance (log10)” value is 3.21.
In the case of “GGATAGACATGGACCGGTTTTCCCGGTAATCCGTATTTGCC (site AGATAGACTGG)” it was 2.1.
Then “GGATAGACATGGACCGGTTTTCCCGGTAATCCGTATTTGCC (site CGATAGACTGG)”, with 0.635; and “GGATAGACATGGACCGGTTTTCCCGGTAATCCGTATTTGCC (site GAATAGACTGG)”, with 1.5.
In the case of “GGATAGACATGGACCGGTTTTCCCGGTAATCCGTATTTGCC (site GCATAGACTGG)” it was 2.11; in that of “GGATAGACATGGACCGGTTTTCCCGGTAATCCGTATTTGCC (site GGAAAGACTGG)”, 0.
For “GGATAGACATGGACCGGTTTTCCCGGTAATCCGTATTTGCC (site GGACAGACTGG)”, the “recombinant UMI read abundance (log10)” value amounted to 2.55.

Values taken from the supplement of paper PMC11208160.
